Test results published in patent US10457687B2, “Aminoacid derivatives, a process for their preparation and pharmaceutical compositions containing them” (LES LABORATOIRES SERVIER, priority 2015, dated 2019).

Tests used:
[1] = target: Mcl-1 protein (Homo sapiens, UniProt Q07820); assay: Inhibition of Mcl-1 by the fluorescence polarisation technique (Method 1 or Method 2); type: binding; conditions: for IC50: fluorescence polarisation, Fluorescein labelled ligand, Method 1 (not underlined) or Method 2 (underlined), read-out: IC50 (μM) Mcl-1 FP
Sequence of Mcl-1 protein (Q07820 whole entry): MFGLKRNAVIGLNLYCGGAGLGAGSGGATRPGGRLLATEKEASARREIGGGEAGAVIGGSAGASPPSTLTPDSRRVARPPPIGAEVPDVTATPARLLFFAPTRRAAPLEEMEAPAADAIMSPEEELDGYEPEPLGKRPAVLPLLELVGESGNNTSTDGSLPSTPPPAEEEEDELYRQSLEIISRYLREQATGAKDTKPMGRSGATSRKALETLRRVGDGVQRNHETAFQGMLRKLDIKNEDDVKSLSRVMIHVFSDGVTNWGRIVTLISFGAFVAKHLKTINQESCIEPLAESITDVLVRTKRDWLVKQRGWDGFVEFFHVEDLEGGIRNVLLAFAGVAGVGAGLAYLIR
In short: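 Binding measured by FP, with Mcl-1 protein and fluorescein-labelled ligand mixed with compounds in an 11-point series at 5% final DMSO. Method 2 used 10 nM each of protein and ligand in phosphate buffer (20 mM Na2HPO4, 1 mM EDTA, 50 mM NaCl, pH 7.4); Method 1 used 5 nM protein, 1 nM ligand in HEPES buffer (10 mM HEPES, 150 mM NaCl, 0.05% Tween 20, pH 7.4).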

[2] = test system: H929 multiple myeloma tumour line; assay: In vitro cytotoxicity, MTT assay, 48 hours; type: cell-based; conditions: H929 cells, 48 hours exposure, cell viability
Protocol: The cytotoxicity studies were carried out on the H929 multiple myeloma tumour line.
The cells are distributed onto microplates and exposed to the test compounds for 48 hours.

[3] = test system: cleaved form of PARP in AMO-1 tumour cells; assay: Quantification of the cleaved form of PARP in vivo (AMO-1 xenograft, MSD ELISA); design: species or system mice (SCID strain); conditions: activation factor: cleaved PARP in treated mice / control mice, SCID mice, intraveinous or oral routes
Protocol: The ability of the compounds of the invention to induce apoptosis, by measuring cleaved PARP levels, is evaluated in a xenograft model of AMO-1 multiple myeloma cells. 1·10^7 AMO-1 cells are grafted sub-cutaneously into immunosuppressed mice (SCID strain). 12 to 14 days after the graft, the animals are treated by intraveinous or oral routes with the various compounds. After treatment, the tumour masses are recovered and lysed, and the cleaved form of PARP is quantified in the tumour lysates.
The quantification is carried out using the “Meso Scale Discovery (MSD) ELISA platform” test, which specifically assays the cleaved form of PARP. It is expressed in the form of an activation factor corresponding to the ratio between the quantity of cleaved PARP in the treated mice divided by the quantity of cleaved PARP in the control mice.

Row | Compound | IC50 [1] [µM] | percentage fluorescence polarisation inhibition, Mcl-1 FP ([1]; partial inhibitors, @ 10 μM test compound) [% @ 10 μM] | IC50 ([2]; Homo sapiens, NCI-H929) [nM] | PARP fold [3] | IC50 [2] [nM]
1 | CC#Cc1sc2ncnc(N[C@H](Cc3ccccc3OCc3ccnc(-c4ccccc4OC)n3)C(=O)O)c2c1-c1ccc(OCCN(C)C)c(Cl)c1C [Example 49, N-[(5Sa)-5-{3-chloro-4-[2-(dimethylamino)ethoxy]-2-methylphenyl}-6-(prop-1-yn-1-yl)thieno[2,3-d]pyrimidin-4-yl]-2-{[2-(2-methoxyphenyl)pyrimidin-4-yl]methoxy}-D-phenylalanine] | 0.003 |  |  | 138.8 | 4.12
2 | COCCOc1ccccc1-c1nccc(COc2ccccc2CC(Nc2ncnc3sc(-c4ccc(F)cc4)c(-c4ccc(OCCN(C)C)c(Cl)c4C)c23)C(=O)O)n1 [Example 51, N-[(5Sa)-5-{3-chloro-4-[2-(dimethylamino)ethoxy]-2-methylphenyl}-6-(4-fluorophenyl)thieno[2,3-d]pyrimidin-4-yl]-2-({2-[2-(2-methoxyethoxy)phenyl]pyrimidin-4-yl}methoxy)-D-phenylalanine] | 0.005 |  | 23.3 | 52.2 | 
3 | COC(=O)c1oc(-c2sc3ncnc(NC(Cc4ccccc4OC)C(=O)O)c3c2-c2ccc(OCCN3CCN(C)CC3)c(Cl)c2C)cc1C [Example 66, N-((5Ra)-5-{3-chloro-2-methyl-4-[2-(4-methylpiperazin-1-yl)ethoxy]phenyl}-6-[5-(methoxycarbonyl)-4-methylfuran-2-yl]thieno[2,3-d]pyrimidin-4-yl)-2-methoxy-D-phenylalanine] |  | 36.9 |  |  | > 3750
4 | CCOC(=O)C(Cc1ccccc1OCc1ccnc(-c2ccccc2OC)n1)Nc1ncnc2sc(-c3ccc(F)cc3)c(-c3ccc(OCCN4CCN(C)CC4)c(Cl)c3C)c12 [Example 256, ethyl N-[(5Sa)-5-{3-chloro-2-methyl-4-[2-(4-methylpiperazin-1-yl)ethoxy]phenyl}-6-(4-fluorophenyl)thieno[2,3-d]pyrimidin-4-yl]-2-{[2-(2-methoxyphenyl)pyrimidin-4-yl]methoxy}-D-phenylalaninate] | 1.61 |  | > 600 | 99.5 | 
5 | CC#Cc1sc2ncnc(NC(Cc3ccccc3OCc3ccnc(-c4ccccc4OC)n3)C(=O)OCC)c2c1-c1ccc(OCCN2CCN(C)CC2)c(Cl)c1C [Example 258, ethyl N-[(5Sa)-5-{3-chloro-2-methyl-4-[2-(4-methylpiperazin-1-yl)ethoxy]phenyl}-6-(prop-1-yn-1-yl)thieno[2,3-d]pyrimidin-4-yl]-2-{[2-(2-methoxyphenyl)pyrimidin-4-yl]methoxy}-D-phenylalaninate] | 1.07 |  | 428 | 132.3 | 
6 | CC#Cc1sc2ncnc(NC(Cc3ccccc3OCc3ccnc(-c4ccccc4OC)n3)C(=O)OCC)c2c1-c1ccc(OCCN(C)C)c(Cl)c1C [Example 259, ethyl N-[(5Sa)-5-{3-chloro-4-[2-(dimethylamino)ethoxy]-2-methylphenyl}-6-(prop-1-yn-1-yl)thieno[2,3-d]pyrimidin-4-yl]-2-{[2-(2-methoxyphenyl)pyrimidin-4-yl]methoxy}-D-phenylalaninate] | 1.35 |  | > 600 | 134.4 | 
7 | COc1ccccc1-c1nccc(COc2ccccc2C[C@@H](Nc2ncnc3sc(-c4ccc(F)cc4)c(-c4c(C)c(Cl)c(OCCN5CCN(C)CC5)c(Cl)c4C)c23)C(=O)O)n1 [Example 270, N-[5-{3,5-dichloro-2,6-dimethyl-4-[2-(4-methylpiperazin-1-yl)ethoxy]phenyl}-6-(4-fluorophenyl)thieno[2,3-d]pyrimidin-4-yl]-2-{[2-(2-methoxyphenyl)pyrimidin-4-yl]methoxy}-D-phenylalanine] | 0.055 |  | 522 |  | 

The next lines start with results.

Row | IC50 [1] [µM] | percentage fluorescence polarisation inhibition, Mcl-1 FP ([1]; partial inhibitors, @ 10 μM test compound) [% @ 10 μM] | Compound | IC50 ([2]; Homo sapiens, NCI-H929) [nM] | PARP fold [3] | IC50 [2] [nM]
8 | 0.002 |  | CCOc1nccc(COc2ccccc2CC(Nc2ncnc3sc(-c4ccc(F)o4)c(-c4ccc(OCCN5CCN(C)CC5)c(Cl)c4C)c23)C(=O)O)n1 [Example 22, N-[(5Sa)-5-{3-chloro-2-methyl-4-[2-(4-methylpiperazin-1-yl)ethoxy]phenyl}-6-(5-fluorofuran-2-yl)thieno[2,3-d]pyrimidin-4-yl]-2-[(2-ethoxypyrimidin-4-yl)methoxy]-D-phenylalanine] | 8.59 | 222.2 | 
9 | 0.006 |  | CC#Cc1sc2ncnc(NC(Cc3ccccc3OCc3ccnn3C(C)(C)C)C(=O)O)c2c1-c1ccc(OCCN2CCN(C)CC2)c(Cl)c1C [Example 40, 2-[(1-tert-butyl-1H-pyrazol-5-yl)methoxy]-N-[(5Sa)-5-{3-chloro-2-methyl-4-[2-(4-methylpiperazin-1-yl)ethoxy]phenyl}-6-(prop-1-yn-1-yl)thieno[2,3-d]pyrimidin-4-yl]-D-phenylalanine] | 32.8 | 114.3 | 
10 | 0.006 |  | CC#Cc1sc2ncnc(NC(Cc3ccccc3OCc3ccnc(N4CCOCC4)n3)C(=O)O)c2c1-c1ccc(OCCN2CCN(C)CC2)c(Cl)c1C [Example 43, N-[(5Sa)-5-{3-chloro-2-methyl-4-[2-(4-methylpiperazin-1-yl)ethoxy]phenyl}-6-(prop-1-yn-1-yl)thieno[2,3-d]pyrimidin-4-yl]-2-{[2-(morpholin-4-yl)pyrimidin-4-yl]methoxy}-D-phenylalanine] | 12.5 | 114.6 | 
11 | 0.007 |  | CC#Cc1sc2ncnc(NC(Cc3ccccc3OCc3ccnc(OCC(F)(F)F)n3)C(=O)O)c2c1-c1ccc(OCCN2CCN(C)CC2)c(Cl)c1C [Example 44, N-[(5Sa)-5-{3-chloro-2-methyl-4-[2-(4-methylpiperazin-1-yl)ethoxy]phenyl}-6-(prop-1-yn-1-yl)thieno[2,3-d]pyrimidin-4-yl]-2-{[2-(2,2,2-trifluoroethoxy)pyrimidin-4-yl]methoxy}-D-phenylalanine] | 3.44 | 85.8 | 
12 | 0.345 |  | COC(=O)c1oc(-c2sc3ncnc(NC(Cc4ccccc4OC)C(=O)O)c3c2-c2ccc(OCCN3CCN(C)CC3)c(Cl)c2C)cc1C [Example 65, N-((5Sa)-5-{3-chloro-2-methyl-4-[2-(4-methylpiperazin-1-yl)ethoxy]phenyl}-6-[5-(methoxycarbonyl)-4-methylfuran-2-yl]thieno[2,3-d]pyrimidin-4-yl)-2-methoxy-D-phenylalanine] | ≥ 2780 |  | 
